Experimental data as given in patent US9328099B2, “Cyanomethylpyrazole carboxamides as janus kinase inhibitors” (Merck Sharp & Dohme Corp., priority 2011, dated 2016).
pIC50: −log10 of the molar value. Read-outs that look alike come from different tables or passages of the source.

Legend:
JAK2 = JAK2 (Homo sapiens (Human), UniProt O60674); assay: Jak Biochemical HTRF Assay, JAK2; settings: HTRF biochemical assay, GST-tagged catalytic domain; top concentration tested […]
Description: (§1) Jak Biochemical HTRF Assay Protocol
(§2) Subsequent reagent additions employed an Agilent Bravo.

JAK1 = JAK1 (Homo sapiens (Human), UniProt P23458); assay: Jak Biochemical HTRF Assay, JAK1
Description: as §1, §2

[1] = HTRF biochemical assay, GST-tagged catalytic domain, top concentration tested […], read-out: JAK1 IC50

Chain of JAK1 (P23458 875-1153): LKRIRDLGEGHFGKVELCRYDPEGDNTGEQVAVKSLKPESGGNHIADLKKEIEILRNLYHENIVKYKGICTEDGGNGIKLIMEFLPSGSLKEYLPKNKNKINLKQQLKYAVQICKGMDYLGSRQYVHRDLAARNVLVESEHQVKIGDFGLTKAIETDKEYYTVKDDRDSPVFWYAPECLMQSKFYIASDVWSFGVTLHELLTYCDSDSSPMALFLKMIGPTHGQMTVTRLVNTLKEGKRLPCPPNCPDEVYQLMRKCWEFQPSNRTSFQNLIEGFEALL
Chain of JAK2 (O60674 849-1124): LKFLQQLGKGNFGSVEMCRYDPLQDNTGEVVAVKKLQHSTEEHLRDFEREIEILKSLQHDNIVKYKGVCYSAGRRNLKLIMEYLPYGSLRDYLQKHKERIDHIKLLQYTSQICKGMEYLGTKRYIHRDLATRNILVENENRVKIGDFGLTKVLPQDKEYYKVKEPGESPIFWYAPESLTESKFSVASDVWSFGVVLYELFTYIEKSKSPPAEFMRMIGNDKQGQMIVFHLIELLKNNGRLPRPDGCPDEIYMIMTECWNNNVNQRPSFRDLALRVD

Row | SMILES | pIC50 (JAK2) | pIC50 (JAK1; [1]) | pIC50 (JAK1; JAK1 IC50)
1 | N#CCC1(n2cc(C(N)=O)c(Nc3ccnc(F)c3)n2)CCC(NCC(F)F)CC1 (stereo not drawn) [Example 40-106, Cis or trans 1-{1-(cyanomethyl)-4-[(2,2-difluoroethyl)amino]cyclohexyl}-3-[(2-fluoropyridin-4-yl)amino]-1H-pyrazole-4-carboxamide] | 7.51 | – | 8.40
2 | N#CC[C@]1(n2cc(C(N)=O)c(Nc3ccc(S(=O)(=O)C(F)F)cc3)n2)CC[C@H](N)CC1 [Example 41-2] | < 5.83 | 7.07 | –
3 | N#CCC1(n2cc(C(N)=O)c(Nc3ccnc(F)c3)n2)CCC(NCc2ccc(C#N)cc2)CC1 (stereo not drawn) [Example 41-6, Cis or trans 1-{4-[(4-cyanobenzyl)amino]-1-(cyanomethyl)cyclohexyl}-3-[(2-fluoropyridin-4-yl)amino]-1H-pyrazole-4-carboxamide] | 6.07 | 7.64 | –
4 | N#CCC1(n2cc(C(N)=O)c(Nc3ccnc(F)c3)n2)CCC(NCc2ccccc2O)CC1 (stereo not drawn) [Example 41-7, Cis or trans 1-{1-(cyanomethyl)-4-[(2-hydroxybenzyl)amino]cyclohexyl}-3-[(2-fluoropyridin-4-yl)amino]-1H-pyrazole-4-carboxamide] | 6.33 | 7.92 | –
5 | N#CCC1(n2cc(C(N)=O)c(Nc3ccnc(F)c3)n2)CCC(NCc2ccc(Cl)cc2)CC1 (stereo not drawn) [Example 41-9, Cis or trans 1-{4-[(4-chlorobenzyl)amino]-1-(cyanomethyl)cyclohexyl}-3-[(2-fluoropyridin-4-yl)amino]-1H-pyrazole-4-carboxamide] | 6.36 | 7.82 | –
6 | N#CCC1(n2cc(C(N)=O)c(Nc3ccnc(F)c3)n2)CCC(NCc2ccncc2)CC1 (stereo not drawn) [Example 41-13, Cis or trans 1-{1-(cyanomethyl)-4-[(pyridin-4-ylmethyl)amino]cyclohexyl}-3-[(2-fluoropyridin-4-yl)amino]-1H-pyrazole-4-carboxamide] | 6.00 | 7.07 | –
7 | N#CCC1(n2cc(C(N)=O)c(Nc3ccnc(F)c3)n2)CCC(NCc2cccc(C#N)c2)CC1 (stereo not drawn) [Example 41-14, Cis or trans 1-{4-[(3-cyanobenzyl)amino]-1-(cyanomethyl)cyclohexyl}-3-[(2-fluoropyridin-4-yl)amino]-1H-pyrazole-4-carboxamide] | 5.85 | 7.35 | –
8 | N#CCC1(n2cc(C(N)=O)c(Nc3ccnc(F)c3)n2)CCC(NCc2ccccc2Cl)CC1 (stereo not drawn) [Example 41-16, Cis or trans 1-{4-[(2-chlorobenzyl)amino]-1-(cyanomethyl)cyclohexyl}-3-[(2-fluoropyridin-4-yl)amino]-1H-pyrazole-4-carboxamide] | 6.04 | 7.62 | –
9 | N#CCC1(n2cc(C(N)=O)c(Nc3ccnc(F)c3)n2)CCC(NCc2ccccn2)CC1 (stereo not drawn) [Example 41-17, Cis or trans 1-{1-(cyanomethyl)-4-[(pyridin-2-ylmethyl)amino]cyclohexyl}-3-[(2-fluoropyridin-4-yl)amino]-1H-pyrazole-4-carboxamide] | 5.86 | 7.34 | –
10 | N#CCC1(n2cc(C(N)=O)c(Nc3ccnc(F)c3)n2)CCC(NCc2ccccc2F)CC1 (stereo not drawn) [Example 41-21, Cis or trans 1-{1-(cyanomethyl)-4-[(2-fluorobenzyl)amino]cyclohexyl}-3-[(2-fluoropyridin-4-yl)amino]-1H-pyrazole-4-carboxamide] | 6.51 | 7.96 | –
11 | N#CCC1(n2cc(C(N)=O)c(Nc3ccnc(F)c3)n2)CCC(NCc2cccnc2)CC1 (stereo not drawn) [Example 41-22, Cis or trans 1-{1-(cyanomethyl)-4-[(pyridin-3-ylmethyl)amino]cyclohexyl}-3-[(2-fluoropyridin-4-yl)amino]-1H-pyrazole-4-carboxamide] | 5.98 | 7.55 | –
12 | N#CCC1(n2cc(C(N)=O)c(Nc3ccnc(F)c3)n2)CCC(NCc2cccc(Cl)c2)CC1 (stereo not drawn) [Example 41-23, Cis or trans 1-{4-[(3-chlorobenzyl)amino]-1-(cyanomethyl)cyclohexyl}-3-[(2-fluoropyridin-4-yl)amino]-1H-pyrazole-4-carboxamide] | 5.84 | 7.34 | –
13 | N#CCC1(n2cc(C(N)=O)c(Nc3ccnc(F)c3)n2)CCC(NCc2cccc(F)c2)CC1 (stereo not drawn) [Example 41-24, Cis or trans 1-{1-(cyanomethyl)-4-[(3-fluorobenzyl)amino]cyclohexyl}-3-[(2-fluoropyridin-4-yl)amino]-1H-pyrazole-4-carboxamide] | 5.99 | 7.59 | –
14 | N#CCC1(n2cc(C(N)=O)c(Nc3ccnc(F)c3)n2)CCC(NCc2ccc(F)cc2)CC1 (stereo not drawn) [Example 41-25, Cis or trans 1-{1-(cyanomethyl)-4-[(4-fluorobenzyl)amino]cyclohexyl}-3-[(2-fluoropyridin-4-yl)amino]-1H-pyrazole-4-carboxamide] | 5.97 | 7.57 | –
15 | N#CCC1(n2cc(C(N)=O)c(Nc3ccnc(F)c3)n2)CCC(NCc2ccc(O)cc2)CC1 (stereo not drawn) [Example 41-26, Cis or trans 1-{1-(cyanomethyl)-4-[(4-hydroxybenzyl)amino]cyclohexyl}-3-[(2-fluoropyridin-4-yl)amino]-1H-pyrazole-4-carboxamide] | 6.12 | 7.80 | –
16 | N#CCC1(n2cc(C(N)=O)c(Nc3ccnc(F)c3)n2)CCC(NCc2ccccc2C#N)CC1 (stereo not drawn) [Example 41-27, Cis or trans 1-{4-[(2-cyanobenzyl)amino]-1-(cyanomethyl)cyclohexyl}-3-[(2-fluoropyridin-4-yl)amino]-1H-pyrazole-4-carboxamide] | < 5.83 | 6.51 | –
17 | N#CCC1(n2cc(C(N)=O)c(Nc3ccnc(F)c3)n2)CCC(NCc2ccccc2)CC1 (stereo not drawn) [Example 41-28, Cis or trans 1-[4-(benzylamino)-1-(cyanomethyl)cyclohexyl]-3-[(2-fluoropyridin-4-yl)amino]-1H-pyrazole-4-carboxamide] | 6.13 | 7.70 | –

More lines, main results first:

Row | pIC50 (JAK2) | pIC50 (JAK1; [1]) | SMILES | pIC50 (JAK1; JAK1 IC50)
18 | 8.70 | 10.05 | N#CC[C@]1(n2cc(C(N)=O)c(Nc3ccc(F)cc3)n2)CC[C@@H](NCc2ccccc2)CC1 [Example 40-108, 1-[cis-4-(benzylamino)-1-(cyanomethyl)cyclohexyl]-3-[(4-fluorophenyl)amino]-1H-pyrazole-4-carboxamide] | –
19 | 6.66 | 8.10 | N#CC[C@]1(n2cc(C(N)=O)c(Nc3ccnc(F)c3)n2)CC[C@H](NCc2ccc(F)cc2F)CC1 [Example 41-1, Trans 1-(1-(cyanomethyl)-4-((2,4-difluorobenzyl)amino)cyclohexyl)-3-((2-fluoropyridin-4-yl)amino)-1H-pyrazole-4-carboxamide] | –
20 | 7.48 | 9.00 | N#CC[C@]1(n2cc(C(N)=O)c(Nc3ccc(S(=O)(=O)C(F)F)cc3)n2)CC[C@H](N)CC1 [Example 41-3] | –
21 | 8.70 | 10.05 | N#CCC1(n2cc(C(N)=O)c(Nc3ccnc(F)c3)n2)CCC(NCc2ccc(F)cc2F)CC1 (stereo not drawn) [Example 41-4, Cis or trans 1-{1-(cyanomethyl)-4-[(2,4-difluorobenzyl)amino]cyclohexyl}-3-[(2-fluoropyridin-4-yl)amino]-1H-pyrazole-4-carboxamide] | –
22 | 6.82 | 9.10 | N#CCC1(n2cc(C(N)=O)c(Nc3ccnc(F)c3)n2)CCC(NCC2CCCCC2)CC1 (stereo not drawn) [Example 41-8, Trans 1-{1-(cyanomethyl)-4-[(cyclohexylmethyl)amino]cyclohexyl}-3-[(2-fluoropyridin-4-yl)amino]-1H-pyrazole-4-carboxamide] | –
23 | 8.70 | 10.52 | N#CCC1(n2cc(C(N)=O)c(Nc3ccnc(F)c3)n2)CCC(NCc2ccccc2Cl)CC1 (stereo not drawn) [Example 41-10, Cis or trans 1-{4-[(2-chlorobenzyl)amino]-1-(cyanomethyl)cyclohexyl}-3-[(2-fluoropyridin-4-yl)amino]-1H-pyrazole-4-carboxamide] | –
24 | 8.70 | 10.10 | N#CCC1(n2cc(C(N)=O)c(Nc3ccnc(F)c3)n2)CCC(NCc2ccccc2F)CC1 (stereo not drawn) [Example 41-11, Cis or trans 1-{1-(cyanomethyl)-4-[(2-fluorobenzyl)amino]cyclohexyl}-3-[(2-fluoropyridin-4-yl)amino]-1H-pyrazole-4-carboxamide] | –
25 | 8.05 | 9.70 | N#CCC1(n2cc(C(N)=O)c(Nc3ccnc(F)c3)n2)CCC(NCc2ccc(F)cc2)CC1 (stereo not drawn) [Example 41-12, Cis or trans 1-{1-(cyanomethyl)-4-[(4-fluorobenzyl)amino]cyclohexyl}-3-[(2-fluoropyridin-4-yl)amino]-1H-pyrazole-4-carboxamide] | –
26 | 8.70 | 10.00 | N#CCC1(n2cc(C(N)=O)c(Nc3ccnc(F)c3)n2)CCC(NCc2ccc(Cl)cc2)CC1 (stereo not drawn) [Example 41-15, Cis or trans 1-{4-[(4-chlorobenzyl)amino]-1-(cyanomethyl)cyclohexyl}-3-[(2-fluoropyridin-4-yl)amino]-1H-pyrazole-4-carboxamide] | –
27 | 8.00 | 10.00 | N#CCC1(n2cc(C(N)=O)c(Nc3ccnc(F)c3)n2)CCC(NCc2ccccc2)CC1 (stereo not drawn) [Example 41-18, Cis or trans 1-[4-(benzylamino)-1-(cyanomethyl)cyclohexyl]-3-[(2-fluoropyridin-4-yl)amino]-1H-pyrazole-4-carboxamide] | –
28 | 8.05 | 9.52 | N#CCC1(n2cc(C(N)=O)c(Nc3ccnc(F)c3)n2)CCC(NCc2cccc(F)c2)CC1 (stereo not drawn) [Example 41-19, Cis or trans 1-{1-(cyanomethyl)-4-[(3-fluorobenzyl)amino]cyclohexyl}-3-[(2-fluoropyridin-4-yl)amino]-1H-pyrazole-4-carboxamide] | –
29 | 7.77 | 9.22 | N#CCC1(n2cc(C(N)=O)c(Nc3ccnc(F)c3)n2)CCC(NCc2cccc(Cl)c2)CC1 (stereo not drawn) [Example 41-20, Cis or trans 1-{4-[(3-chlorobenzyl)amino]-1-(cyanomethyl)cyclohexyl}-3-[(2-fluoropyridin-4-yl)amino]-1H-pyrazole-4-carboxamide] | –
